Read-outs that look alike come from different tables or passages of the source.

The subject of assay [1] is Sphaerotheca fuliginea. As to the kind of experiment: Test 1: control effect against powdery mildew on cucumber (control index). To be noted: individual active compound; for pest or weed control at 0.5 ppm: test concentration 0.5 ppm. It counts as in vivo, Sphaerotheca fuliginea on cucumber (variety: SAGAMI HANJIRO). The text has this:
(§1) The expected efficacies of the combinations of the individual active compounds can be determined using Colby's formula, which is described below [Colby, S. R. “Calculating synergistic and antagonistic responses of herbicide combinations,” Weeds 15, 20-22 (1967)]: Colby's formula: E=A+B−(A×B/100) E is the predicted efficacy (control index) with reference to the untreated control when using the mixture of the active compound X at the concentration x and the active compound Y at the concentration y; A is the efficacy (control index) with respect to the untreated control when using the active compound X at the concentration x; B is the efficacy (control index) with respect to the untreated control when using the active compound […] at the concentration y.
(§2) Potted young seedlings of cucumber (variety: SAGAMI HANJIRO; in two-leaf stage) were sprayed with invention compounds formulated in accordance with Preparations and the existing antimicrobial active compounds listed in Table 3 (all compounds are identified by associated letters of the alphabet) after they were diluted with water to predetermined concentrations so that they would serve as active compounds; a spray gun was used to provide a spray rate of 15 ml per pot. After air-drying, the seedlings were inoculated with conida of Sphaerotheca fuliginea by spraying a suspension of the conida. Thereafter, the seedlings were cultivated for 14 days in a greenhouse and the percentage of diseased area was investigated for each leaf; based on the result of this investigation, the control index was calculated using the following formula: Control index={(percentage of diseased area on the untreated control−percentage of diseased area on treated sample)/percentage of diseased area on the untreated control}×100

Assay [2] relates to Pseudoperonospora cubensis. As to the kind of experiment: Control effect against Pseudoperonospora cubensis on cucumber seedlings (control index as in Test 1). It counts as in vivo. The settings on record: for pest or weed control at 0.05 ppm: test concentration 0.05 ppm.
Source text: as §1, §2
Potted young seedlings of cucumber (variety: SAGAMI HANJIRO; in two-and-a-half leaf stage) were sprayed with invention agri-horticulatural pest control compositions formulated in accordance with Preparations and the existing antimicrobial active compounds listed in Table 5 (all compounds are identified by associated letters of the alphabet) after they were diluted with water to predetermined concentrations so that they would serve as active compounds; a spray gun was used to provide a spray rate of 15 ml per pot. After air-drying, the seedlings were inoculated with conida of Pseudoperonospora cubensis by spraying a suspension of the conida. Immediately thereafter, the seedlings were held for a day under the conditions of 21° C. and 100% humidity. The seedlings were then placed at room temperature and 3 days later, the percentage of diseased area was investigated for each leaf; based on the result of this investigation, the control index was calculated as in Test 1.

The test system of assay [3] is Aphis gossypii. In words: Test 3: insecticidal effect on Aphis gossypii (mortality rate). It counts as in vivo.
Source text: as §1
Invention compounds and the existing insecticidal active compounds shown in Table 7 (hereinbelow, the compound names are identified by associated letters of the alphabet) were diluted with water to predetermined concentrations so that they would serve as active ingredients. Cucumber leaves with a diameter of 3 cm were placed on plastic cups filled with 0.5% soft agar and five adult aphids were released to feed on the leaves. After standing overnight, the adult insects were removed and the number of nymph as an offspring was counted; each of the prepared liquid samples of insecticide was sprayed in 0.4 ml portions and two days later, the number of dead insects was countd to calculate the mortality rate. The expected efficacies of the combinations of the individual active compounds were calculated by Colby's formula.

Where [4] appears, read: individual active compound, test concentration 1 ppm.
Where [5] appears, read: individual active compound, test concentration 0.1 ppm.
Where [6] appears, read: Pseudoperonospora cubensis, 72 h, individual active compound, read-out: Observed value Control index.
Setting [7] is: Aphis gossypii, 48 h, individual active compound, test concentration 0.1 ppm, read-out: Observed value Mortality rate.

For the molecule `N#Cc1c(Cl)c(Cl)c(Cl)c(C#N)c1Cl` [Aa: Chlorothalonil, chlorothalonil], the pest or weed control at 5 ppm in assay [1] (Podosphaera fuliginea, 336 h, test concentration 5 ppm) came to 48%. Also, the pest or weed control at 0.5 ppm in assay [2] (Pseudoperonospora cubensis, 72 h, individual active compound, test concentration 0.5 ppm, read-out: Observed value Control index) amounted to 49%.

Consider `COCC(=O)N(c1c(C)cccc1C)[C@H](C)C(=O)OC` [Ba: Metalaxyl M, metalaxyl-M], for which the “Observed value Control index” value in assay [2] (individual active compound, test concentration 10 ppm) worked out at 35.

In the case of `CO/C=C(/C(=O)OC)c1ccccc1Oc1cc(Oc2ccccc2C#N)ncn1` [Ea: Azoxystrobin, azoxystrobin], in assay [1] (test concentration 100 ppm), the Control index was 21. Further, the “Observed value Control index” value in assay [2] (setting [4]) was found to be 45.

`CO/N=C(/C(=O)OC)c1ccccc1COc1ccccc1C` [Eb: Kresoxim-methyl, kresoxim-methyl]: in assay [1] (Podosphaera fuliginea, 336 h, test concentration 100 ppm), the pest or weed control at 100 ppm came out at 29%. Besides, in assay [2] (Pseudoperonospora cubensis, 72 h, individual active compound, test concentration 1 ppm, read-out: Observed value Control index), the pest or weed control at 1 ppm was determined as 42%.

In the case of `Cc1ccc(-c2c(Cl)nc(C#N)n2S(=O)(=O)N(C)C)cc1` [Fb: Cyazofamid, cyazofamid], the pest or weed control at 0.1 ppm in assay [2] (Pseudoperonospora cubensis, 72 h, individual active compound, test concentration 0.1 ppm, read-out: Observed value Control index) was found to be 50%.

In the case of `Cc1c(Br)c2ccc(F)cc2n1S(=O)(=O)c1ncn(S(=O)(=O)N(C)C)n1` [Fc: Amisulbrom, amisulbrom], the “Observed value Control index” value in assay [2] (setting [5]) amounted to 37.

`COc1ccc(C(=CC(=O)N2CCOCC2)c2ccc(Cl)cc2)cc1OC` [Ja: Dimethomorph, dimethomorph]: the pest or weed control at 5 ppm in assay [2] (Pseudoperonospora cubensis, 72 h, individual active compound, test concentration 5 ppm, read-out: Observed value Control index) amounted to 21%.

Regarding `CC(C)OC(=O)N[C@H](C(=O)N[C@H](C)c1nc2ccc(F)cc2s1)C(C)C` [Jb: Benthiavalicarb-isopropyl, benthiavalicarb], in assay [2] (Pseudoperonospora cubensis, 72 h, read-out: Observed value Control index), the pest or weed control at 0.5 ppm is 12%.

Consider `C#CCOc1ccc(CCNC(=O)C(OCC#C)c2ccc(Cl)cc2)cc1OC` (centres unmarked) [Jc: Mandipropamid, mandipropamid], for which the “Observed value Control index” value in assay [2] (individual active compound, test concentration 0.5 ppm) was found to be 21.

`CCNC(=O)NC(=O)/C(C#N)=N/OC` [Na: Cymoxanil, cymoxanil]: the pest or weed control at 10 ppm in assay [2] (Pseudoperonospora cubensis, 72 h, individual active compound, test concentration 10 ppm, read-out: Observed value Control index) is 45%.

As to `COP(=O)(NC(C)=O)SC` (centres unmarked) [P: Acephate, acephate, reference compound], the pest or weed control at 10 ppm in assay [3] (Aphis gossypii, 48 h, read-out: Observed value Mortality rate) stood at 47%.

Regarding `O=[N+]([O-])NC1=NCCN1Cc1ccc(Cl)nc1` [Q: Imidacloprid, imidacloprid, reference compound], in assay [3] (Aphis gossypii, 48 h, individual active compound, test concentration 0.01 ppm, read-out: Observed value Mortality rate), the pest or weed control at 0.01 ppm amounted to 50%.

In the case of `CCc1nn(C)c(C(=O)NCc2ccc(Oc3ccc(C)cc3)cc2)c1Cl` [R: Tolfenpyrad, tolfenpyrad, reference compound], in assay [3] (Aphis gossypii, 48 h, individual active compound, test concentration 0.5 ppm, read-out: Observed value Mortality rate), the pest or weed control at 0.5 ppm was found to be 48%.

As for `CC1(C)[C@H](C(=O)O[C@H](C#N)c2cccc(Oc3ccccc3)c2)[C@@H]1/C=C\C(=O)OC(C(F)(F)F)C(F)(F)F` [S: Acrinathrin], in assay [3] (setting [5]), the “Observed value Mortality rate” value was found to be 35.

In the case of `N#CCNC(=O)c1cnccc1C(F)(F)F` [T: Flonicamid, flonicamid, reference compound], in assay [3] (setting [4]), the “Observed value Mortality rate” value amounted to 43.

With `CC(=O)N1C(=O)N(NCc2cccnc2)Cc2cc(C(F)(C(F)(F)F)C(F)(F)F)ccc21` [U: Pyrifluquinazon, pyrifluquinazon, reference compound], the “Observed value Mortality rate” value in assay [3] (individual active compound, test concentration 0.01 ppm) is 40.

For `FCc1ccccc1C#CCCNc1ncnc2ccccc12` [compound 99], the pest or weed control at 0.5 ppm in assay [1] (Podosphaera fuliginea, 336 h) came out at 53%. Besides, the pest or weed control at 0.05 ppm in assay [2] (setting [6]) was 46%. In addition, in assay [3] (setting [7]), the pest or weed control at 0.1 ppm was found to be 44%.

As for `FC(F)c1ccccc1C#CCCNc1ncnc2ccccc12` [compound 100], in assay [1] (Podosphaera fuliginea, 336 h), the pest or weed control at 0.5 ppm turned out to be 55%. The pest or weed control at 0.05 ppm in assay [2] (setting [6]) turned out to be 42%. For the same molecule, the pest or weed control at 0.1 ppm in assay [3] (setting [7]) was 40%.

Consider `FC(F)(F)c1ccccc1C#CCCNc1ncnc2ccccc12` [compound 101], for which, in assay [1] (Podosphaera fuliginea, 336 h), the pest or weed control at 0.5 ppm stood at 56%. Besides, in assay [2] (setting [6]), the pest or weed control at 0.05 ppm was 38%. Moreover, in assay [3] (setting [7]), the pest or weed control at 0.1 ppm was determined as 36%.

Regarding `COCc1ccccc1C#CCCNc1ncnc2ccccc12` [compound 133], the pest or weed control at 0.5 ppm in assay [1] (Podosphaera fuliginea, 336 h) was 49%. For the same molecule, the pest or weed control at 0.05 ppm in assay [2] (setting [6]) stood at 41%. For the same molecule, in assay [3] (setting [7]), the pest or weed control at 0.1 ppm is 39%.

For `COCc1cc(F)ccc1C#CCCNc1ncnc2ccccc12` [compound 139], in assay [1] (Podosphaera fuliginea, 336 h), the pest or weed control at 0.5 ppm was found to be 51%. Also, the pest or weed control at 0.05 ppm in assay [2] (setting [6]) turned out to be 43%. The pest or weed control at 0.1 ppm in assay [3] (setting [7]) stood at 41%.

Turning to `COCc1cc(Cl)ccc1C#CCCNc1ncnc2ccccc12` [compound 140], the pest or weed control at 0.5 ppm in assay [1] (Podosphaera fuliginea, 336 h) amounted to 48%. In addition, in assay [2] (setting [6]), the pest or weed control at 0.05 ppm was determined as 45%. Also, the pest or weed control at 0.1 ppm in assay [3] (setting [7]) worked out at 43%.

For `COCc1cc(C)ccc1C#CCCNc1ncnc2ccccc12` [compound 145], in assay [1] (Podosphaera fuliginea, 336 h), the pest or weed control at 0.5 ppm is 45%. Also, in assay [2] (setting [6]), the pest or weed control at 0.05 ppm amounted to 37%. Besides, the pest or weed control at 0.1 ppm in assay [3] (setting [7]) was 35%.

Consider `OCC1=C(C#CCCNc2ncnc3ccccc23)CCCC1` [compound 390], for which the pest or weed control at 0.5 ppm in assay [1] (Podosphaera fuliginea, 336 h) is 51%. The pest or weed control at 0.05 ppm in assay [2] (setting [6]) was 38%. In assay [3] (setting [7]), the pest or weed control at 0.1 ppm was found to be 41%.

In the case of `FCC1=C(C#CCCNc2ncnc3ccccc23)CCCC1` [compound 391], in assay [1] (Podosphaera fuliginea, 336 h), the pest or weed control at 0.5 ppm came to 48%. The pest or weed control at 0.05 ppm in assay [2] (setting [6]) came out at 41%. Moreover, the pest or weed control at 0.1 ppm in assay [3] (setting [7]) was 43%.

Turning to mancozeb [Ac: Manzeb], the “Observed value Control index” value in assay [2] (setting [4]) was found to be 52.

The values are drawn from patent US9089139B2, “Agri-horticultural pest control compositions comprising 4-(3-butynyl)aminopyrimidine derivatives” (SDS Biotech K. K., priority 2011, dated 2015).
